“And” between values parts separate entries of the source, which are not always exact repeats. Equal entries are not always repeated.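 The compound was tested at five concentrations on cells cultured in 96-well plates, with a 48-hour exposure period. GI50 = concentration required for 50% inhibition of growth.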 The source made the active and inactive calls. No stated cut-off is given here; in the data, active = GI50 up to about 1.1 µM and inactive = higher.
Legend:
Assay in all cases: DTP human tumour cell line panel, 48 h
HL-60 = test system: HL-60
SF-539 = test system: SF-539
A549 = test system: A549
COLO 205 = test system: COLO 205
HCC 2998 = test system: HCC 2998
786-0 = test system: 786-0
HOP-62 = test system: HOP-62
RPMI-8226 = test system: RPMI-8226
HCT-116 = test system: HCT-116
OVCAR-3 = test system: OVCAR-3
OVCAR-5 = test system: OVCAR-5
MOLT-4 = test system: MOLT-4
KM12 = test system: KM12
SK-MEL-28 = test system: SK-MEL-28
M19-MEL = test system: M19-MEL
DMS-273 = test system: DMS-273
ACHN = test system: ACHN
NCI-H226 = test system: NCI-H226
SF-268 = test system: SF-268
HT-29 = test system: HT-29
LOX IMVI = test system: LOX IMVI
SR = test system: SR
UACC-62 = test system: UACC-62
SK-MEL-2 = test system: SK-MEL-2
EKVX = test system: EKVX
M14 = test system: M14
NCI-H460 = test system: NCI-H460
K562 = test system: K562
KM-20L2 = test system: KM-20L2
OVCAR-8 = test system: OVCAR-8
XF498 = test system: XF498
SNB-75 = test system: SNB-75
SK-MEL-5 = test system: SK-MEL-5
NCI-H23 = test system: NCI-H23
A498 = test system: A498
UACC-257 = test system: UACC-257
DLD-1 = test system: DLD-1
DMS-114 = test system: DMS-114
SNB-19 = test system: SNB-19
CAKI-1 = test system: CAKI-1
SN12C = test system: SN12C
SNB-78 = test system: SNB-78
HOP-92 = test system: HOP-92
TK-10 = test system: TK-10
SF-295 = test system: SF-295
NCI-H522 = test system: NCI-H522
LXFL 529 = test system: LXFL 529
SW-620 = test system: SW-620
Malme-3M = test system: Malme-3M
HCT-15 = test system: HCT-15
CCRF-CEM = test system: CCRF-CEM
RXF 631 = test system: RXF 631
U-251 = test system: U-251
UO-31 = test system: UO-31
RXF 393 = test system: RXF 393
IGROV-1 = test system: IGROV-1
OVCAR-4 = test system: OVCAR-4
HOP-18 = test system: HOP-18
SK-OV-3 = test system: SK-OV-3

Measured: GI50

COc1ccc2c(c1)CCc1cnn(C3OC(COC(C)=O)C(OC(C)=O)C(OC(C)=O)C3OC(C)=O)c1-2 (configuration not stated)
38.2 µM: HCT-15
inactive: HL-60 > 100 µM | SF-539 > 100 µM | A549 > 100 µM | COLO 205 84.7 µM | HCC 2998 > 100 µM | 786-0 28.2 µM | HOP-62 > 100 µM | RPMI-8226 16.7 µM | HCT-116 > 100 µM | OVCAR-3 23.9 µM | OVCAR-5 > 100 µM | MOLT-4 29.2 µM | KM12 > 100 µM | SK-MEL-28 41.1 µM | M19-MEL 66.2 µM | DMS-273 > 100 µM | ACHN > 100 µM | NCI-H226 79.6 µM | SF-268 > 100 µM | HT-29 37.2 µM | LOX IMVI > 100 µM | SR 26.1 µM | UACC-62 66.5 µM | SK-MEL-2 > 100 µM | EKVX 49 µM | M14 56 µM | NCI-H460 > 100 µM | K562 14.5 µM | KM-20L2 22.5 µM | OVCAR-8 > 100 µM | XF498 22.6 µM | SNB-75 36.6 µM | SK-MEL-5 44.4 µM | NCI-H23 69 µM | A498 > 100 µM | UACC-257 > 100 µM | DLD-1 46.8 µM | DMS-114 65.6 µM | SNB-19 > 100 µM | CAKI-1 76.2 µM | SN12C > 100 µM | SNB-78 > 100 µM | HOP-92 27.3 µM | TK-10 > 100 µM | SF-295 > 100 µM | NCI-H522 17 µM | LXFL 529 19.1 µM | SW-620 18.4 µM | Malme-3M > 10 µM | CCRF-CEM 15 µM | RXF 631 > 100 µM | U-251 22.5 µM

COc1ccc(/C=C/c2nnc(S)[nH]2)cc1
inactive: HL-60 > 100 µM | SF-539 > 100 µM | A549 > 100 µM | UO-31 > 100 µM | HCC 2998 > 100 µM | 786-0 > 100 µM | RPMI-8226 > 100 µM | HCT-116 > 100 µM | OVCAR-3 > 100 µM | OVCAR-5 > 100 µM | MOLT-4 > 100 µM | SK-MEL-28 > 100 µM | M19-MEL > 100 µM | DMS-273 > 100 µM | ACHN > 100 µM | NCI-H226 > 100 µM | SF-268 > 100 µM | HT-29 > 100 µM | LOX IMVI > 100 µM | SR > 100 µM | UACC-62 > 100 µM | SK-MEL-2 > 100 µM | EKVX > 100 µM | M14 > 100 µM | NCI-H460 > 100 µM | K562 > 100 µM | KM-20L2 > 100 µM | OVCAR-8 > 100 µM | XF498 79.3 µM | RXF 393 > 100 µM | SNB-75 > 100 µM | IGROV-1 > 100 µM | SK-MEL-5 > 100 µM | NCI-H23 > 100 µM | A498 > 100 µM | UACC-257 > 100 µM | DLD-1 > 100 µM | DMS-114 > 100 µM | SNB-19 > 100 µM | CAKI-1 > 100 µM | SN12C > 100 µM | SNB-78 > 100 µM | HOP-92 > 100 µM | TK-10 > 100 µM | SF-295 > 100 µM | NCI-H522 > 100 µM | LXFL 529 > 100 µM | OVCAR-4 > 100 µM | SW-620 > 100 µM | Malme-3M > 100 µM | CCRF-CEM > 100 µM | RXF 631 > 100 µM | U-251 > 100 µM
> 100 µM: HCT-15

CC1OC(OC23C(=O)CC(C)(O)CC2(O)C=CC2=C3C(=O)c3ccc(C4CC(OC5CCC(OC6CC(O)C(O)C(C)O6)C(C)O5)C(O)C(C)O4)c(O)c3C2=O)CCC1O (configuration not stated)
inactive: HL-60 4.42 µM and 6.03 µM | SF-539 17.7 µM and 17.3 µM | A549 29.6 µM and 25.1 µM | COLO 205 3.79 µM and 2.33 µM | UO-31 18 µM and 18.4 µM | HCC 2998 13.9 µM and 16.2 µM | 786-0 17.4 µM and 15.8 µM | HOP-62 27 µM and 21.5 µM | RPMI-8226 13.2 µM and 10 µM | OVCAR-5 19.1 µM and 20.6 µM | MOLT-4 5.71 µM | KM12 17.5 µM and 14.4 µM | SK-MEL-28 15.5 µM and 14.3 µM | ACHN 17 µM and 15.7 µM | NCI-H226 19.5 µM and 18.6 µM | HOP-18 17.5 µM and 17.1 µM | SF-268 17 µM and 16.4 µM | HT-29 12.8 µM and 19.5 µM | SR > 100 µM | UACC-62 13.8 µM and 16.3 µM | SK-MEL-2 16.7 µM and 16.3 µM | EKVX 18.7 µM and 17.7 µM | M14 18.2 µM and 13.8 µM | NCI-H460 19.4 µM and 17.6 µM | K562 14.5 µM and 9.4 µM | KM-20L2 19.1 µM and 19.7 µM | XF498 18.2 µM and 18.9 µM | SNB-75 16.3 µM and 16.9 µM | IGROV-1 16.5 µM and 16.4 µM | SK-MEL-5 19 µM and 16.1 µM | NCI-H23 16.4 µM and 18.5 µM | UACC-257 17.9 µM and 15.2 µM | DLD-1 11.1 µM and 13.6 µM | CAKI-1 19.1 µM and 19.8 µM | SN12C 18.3 µM and 16.5 µM | SNB-78 17.3 µM and 17.7 µM | TK-10 21.6 µM and 17.7 µM | NCI-H522 1.94 µM and 2.05 µM | LXFL 529 15.4 µM and 11.5 µM | OVCAR-4 16.4 µM and 19.1 µM | SW-620 4.86 µM and 3.39 µM | SK-OV-3 28.1 µM and 17.9 µM | Malme-3M 3.02 µM and 1.57 µM | CCRF-CEM 6.65 µM | RXF 631 12.9 µM and 20.1 µM | U-251 16 µM and 17.1 µM

COc1ccc(/C=C/C(=O)c2sc(NC(=S)NC(=O)c3ccc(Cl)cc3)nc2C)cc1OC
inactive: HL-60 30.3 µM | SF-539 60.4 µM | A549 43 µM | COLO 205 37.2 µM | UO-31 64 µM | HCC 2998 > 100 µM | 786-0 83.8 µM | HOP-62 47.5 µM | RPMI-8226 24 µM | HCT-116 51.4 µM | OVCAR-3 38.4 µM | OVCAR-5 > 100 µM | MOLT-4 27.2 µM | KM12 59.2 µM | SK-MEL-28 35.9 µM | M19-MEL 53.2 µM | ACHN 59.6 µM | NCI-H226 37.2 µM | HOP-18 5.89 µM | SF-268 94.8 µM | HT-29 88.1 µM | LOX IMVI 32.2 µM | SR 32 µM | UACC-62 18.4 µM | SK-MEL-2 47.1 µM | EKVX 66.8 µM | M14 52.6 µM | NCI-H460 84.7 µM | K562 27.4 µM | KM-20L2 > 100 µM | OVCAR-8 43.9 µM | XF498 34.8 µM | RXF 393 95.5 µM | IGROV-1 43.1 µM | NCI-H23 33.5 µM | UACC-257 47.5 µM | DLD-1 49.4 µM | DMS-114 41.6 µM | SNB-19 40.5 µM | CAKI-1 75.9 µM | SN12C 36.6 µM | SNB-78 54.3 µM | TK-10 > 100 µM | SF-295 77.4 µM | NCI-H522 > 10 µM | LXFL 529 32.2 µM | OVCAR-4 52.5 µM | SW-620 55.7 µM | SK-OV-3 > 100 µM | Malme-3M 37.2 µM | CCRF-CEM 26.2 µM | RXF 631 48.6 µM | U-251 34.6 µM
35 µM: HCT-15

From ChEMBL document CHEMBL1201862, “PubChem BioAssay data set” (2004)
